Literature values as cited in US20260102333A1, “TOPICAL DELIVERY OF ANTIFUNGAL AGENTS FOR TREATING FUNGAL INFECTIONS” (LYOTROPIC DELIVERY SYSTEMS LTD., priority 2022, published 2026).
Structures can show the parent of a compound that is named as a salt.

How the values were obtained:
[1] = tested on: Trichophyton mentagrophytes

- MIC50 (minimum inhibitory concentration required for 50% inhibition) [1]: 0.03 to 0.5 µg/mL
- MIC50 (minimum inhibitory concentration required for 50% inhibition) (Trichophyton rubrum): 0.03 to 0.5 µg/mL
Compound: CN(C/C=C/C#CC(C)(C)C)Cc1cccc2ccccc12 [TRB, terbinafine hydrochloride]
